According to ChEMBL document CHEMBL4024718, “Design and synthesis of quinazolinones as EGFR inhibitors to overcome EGFR resistance obstacle” (Bioorg Med Chem, 2017):

Experiments:
HT-29 = assay: Antiproliferative activity against non-special gene type human HT-29 cells after 48 hrs by SRB assay; assay type: cell-based; conditions: HT-29, 48 h
[1] = target: Epidermal growth factor receptor (Homo sapiens, UniProt P00533, T790M)
NCI-H1975 = assay: cells; assay type: functional, cell-based; conditions: Homo sapiens, NCI-H1975, 48 h
[2] = target: Epidermal growth factor receptor (Homo sapiens, UniProt P00533); assay: Inhibition of human EGFR preincubated for 5 mins with substrate followed by ATP addition measured after 30 mins by HTRF method; assay type: ADME
A549 = assay: Antiproliferative activity against human A549 cells harboring wild type EGFR after 48 hrs by SRB assay; assay type: cell-based; conditions: A549, 48 h
[3] = target: 5'-AMP-activated protein kinase catalytic subunit alpha-1 (Homo sapiens) (UniProt Q13131); assay: Inhibition of full length recombinant human C-terminal His-tagged AMPKalpha1 expressed in Spodoptera frugiperda insect cells at 3 uM relative to control
[4] = target: Aurora kinase A (Homo sapiens) (UniProt O14965); assay: Inhibition of N-terminal His6-tagged recombinant full-length human Aurora A expressed in Sf21 insect cells at 3 uM relative to control
[5] = target: Fibroblast growth factor receptor 1 (Homo sapiens) (UniProt P11362); assay: Inhibition of N-terminal GST-tagged recombinant human FGFR1 (456 to 765 residues) expressed in baculovirus infected Sf21 insect cells at 3 uM relative to control
[6] = target: Vascular endothelial growth factor receptor 2 (Homo sapiens) (UniProt P35968); assay: Inhibition of recombinant human VEGFR-2 at 3 uM relative to control
[7] = target: Cyclin-dependent kinase 1/cyclin B1 (Homo sapiens) (UniProt P06493+P14635); assay: Inhibition of C-terminal His6-tagged human full length Cdk1/N-terminal GST-tagged human full length Cyclin B expressed in baculovirus infected Sf21 insect cells at 3 uM relative to control
[8] = target: Receptor-type tyrosine-protein kinase FLT3 (Homo sapiens) (UniProt P36888); assay: Inhibition of N-terminal GST tagged recombinant human Flt3 (564 to end residues) at 3 uM relative to control
[9] = target: Tyrosine-protein kinase Blk (Homo sapiens) (UniProt P51451); assay: Inhibition of human N-terminal His6 tagged recombinant full-length human Blk expressed in Sf21 insect cells at 3 uM relative to control
[10] = target: Tyrosine-protein kinase ABL1 (Homo sapiens) (UniProt P00519); assay: Inhibition of N-terminal His6-tagged recombinant human Abl (27 to end residues) expressed in baculovirus infected Sf21 insect cells at 3 uM relative to control
[11] = target: LKB1-STRAD-MO25 complex (Homo sapiens) (UniProt Q15831+Q7RTN6+Q9Y376); assay: Inhibition of recombinant full-length N-terminal 6-His-tagged human LKB1/GST-tagged MO25alpha/GST-tagged STRADalpha expressed in SF21 cells at 3 uM relative to control
[12] = target: EGFR (epidermal growth factor receptor) kinase domain (Homo sapiens, UniProt P00533); assay: Inhibition of N-terminal GST-tagged human EGFR kinase domain (696 to end residues) expressed in baculovirus infected Sf21 insect cells at 3 uM relative to control
[13] = target: Tyrosine-protein kinase SYK (Homo sapiens) (UniProt P43405); assay: Inhibition of recombinant full length N-terminal His6-tagged human SYK expressed in baculovirus infected Sf21 insect cells at 3 uM relative to control
[14] = target: Focal adhesion kinase 1 (Homo sapiens) (UniProt Q05397); assay: Inhibition of N-terminal 6His-tagged recombinant human FAK (411 to 686 residues) expressed in baculovirus infected Sf21 insect cells at 3 uM relative to control
[15] = target: Tyrosine-protein kinase JAK2 (Homo sapiens) (UniProt O60674); assay: Inhibition of C-terminal His6-tagged recombinant human JAK2 (808 to end residue) expressed in baculovirus infected Sf21 insect cells at 3 uM relative to control
[16] = target: Dual specificity mitogen-activated protein kinase kinase 1 (Homo sapiens) (UniProt Q02750); assay: Inhibition of recombinant human N-terminal GST-fused MEK1 expressed in Escherichia coli at 3 uM relative to control
[17] = target: Vascular endothelial growth factor receptor 1 (Homo sapiens) (UniProt P17948); assay: Inhibition of recombinant human VEGFR-1 expressed in Spodoptera frugiperda insect cells at 3 uM relative to control
[18] = target: Insulin-like growth factor 1 receptor (Homo sapiens) (UniProt P08069); assay: Inhibition of N-terminal 6His-tagged recombinant human IGF-1R (959 to end residues) expressed in baculovirus infected Sf21 insect cells at 3 uM relative to control
[19] = target: Hepatocyte growth factor receptor (Homo sapiens) (UniProt P08581); assay: Inhibition of N-terminal His6-tagged recombinant human Met (974 to end residues) expressed in baculovirus infected Sf21 insect cells at 3 uM relative to control
[20] = target: Insulin receptor (Homo sapiens) (UniProt P06213); assay: Inhibition of N-terminal 6His-tagged recombinant human insulin receptor (1005 to 1310 residues) expressed in baculovirus infected Sf21 insect cells at 3 uM relative to control
[21] = target: Mast/stem cell growth factor receptor Kit (Homo sapiens) (UniProt P10721); assay: Inhibition of N-terminal GST tagged recombinant human c-Kit (544 to end residues) expressed in baculovirus infected Sf21 insect cells at 3 uM relative to control

Epidermal growth factor receptor (Homo sapiens, UniProt P00533), sequence (P00533 whole entry): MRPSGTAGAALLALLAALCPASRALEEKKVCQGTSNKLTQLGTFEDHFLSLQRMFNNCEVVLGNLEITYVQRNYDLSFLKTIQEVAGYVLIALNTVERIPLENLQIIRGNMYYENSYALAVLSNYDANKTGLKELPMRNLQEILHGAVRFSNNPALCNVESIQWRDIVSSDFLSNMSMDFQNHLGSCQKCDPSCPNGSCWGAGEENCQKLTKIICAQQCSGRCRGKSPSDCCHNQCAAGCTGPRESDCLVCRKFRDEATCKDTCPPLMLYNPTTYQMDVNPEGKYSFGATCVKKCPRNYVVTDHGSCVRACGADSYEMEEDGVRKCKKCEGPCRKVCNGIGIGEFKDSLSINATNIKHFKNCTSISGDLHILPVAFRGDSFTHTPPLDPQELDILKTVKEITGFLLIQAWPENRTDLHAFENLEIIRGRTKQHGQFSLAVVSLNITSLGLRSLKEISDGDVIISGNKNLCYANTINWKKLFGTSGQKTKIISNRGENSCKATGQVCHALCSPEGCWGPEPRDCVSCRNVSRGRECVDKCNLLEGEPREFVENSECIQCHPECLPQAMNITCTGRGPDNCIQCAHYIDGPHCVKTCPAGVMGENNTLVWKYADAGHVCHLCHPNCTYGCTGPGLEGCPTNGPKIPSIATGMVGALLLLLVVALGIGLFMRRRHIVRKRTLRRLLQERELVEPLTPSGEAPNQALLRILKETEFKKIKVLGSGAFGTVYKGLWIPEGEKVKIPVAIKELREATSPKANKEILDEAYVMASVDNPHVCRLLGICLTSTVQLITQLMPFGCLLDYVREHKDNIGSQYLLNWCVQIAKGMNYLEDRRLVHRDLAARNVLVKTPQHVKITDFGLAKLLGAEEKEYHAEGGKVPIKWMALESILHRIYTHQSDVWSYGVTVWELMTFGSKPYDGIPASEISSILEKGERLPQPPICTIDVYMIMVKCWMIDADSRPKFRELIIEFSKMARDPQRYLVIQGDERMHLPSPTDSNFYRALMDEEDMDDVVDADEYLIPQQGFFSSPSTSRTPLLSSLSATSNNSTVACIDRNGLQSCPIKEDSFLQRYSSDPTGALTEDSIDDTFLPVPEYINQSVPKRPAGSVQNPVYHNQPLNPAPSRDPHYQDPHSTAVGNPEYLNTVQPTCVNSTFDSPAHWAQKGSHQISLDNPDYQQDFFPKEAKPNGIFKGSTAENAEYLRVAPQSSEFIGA
Epidermal growth factor receptor (Homo sapiens, UniProt P00533, T790M), sequence (P00533 25-1210 T790M limits assumed): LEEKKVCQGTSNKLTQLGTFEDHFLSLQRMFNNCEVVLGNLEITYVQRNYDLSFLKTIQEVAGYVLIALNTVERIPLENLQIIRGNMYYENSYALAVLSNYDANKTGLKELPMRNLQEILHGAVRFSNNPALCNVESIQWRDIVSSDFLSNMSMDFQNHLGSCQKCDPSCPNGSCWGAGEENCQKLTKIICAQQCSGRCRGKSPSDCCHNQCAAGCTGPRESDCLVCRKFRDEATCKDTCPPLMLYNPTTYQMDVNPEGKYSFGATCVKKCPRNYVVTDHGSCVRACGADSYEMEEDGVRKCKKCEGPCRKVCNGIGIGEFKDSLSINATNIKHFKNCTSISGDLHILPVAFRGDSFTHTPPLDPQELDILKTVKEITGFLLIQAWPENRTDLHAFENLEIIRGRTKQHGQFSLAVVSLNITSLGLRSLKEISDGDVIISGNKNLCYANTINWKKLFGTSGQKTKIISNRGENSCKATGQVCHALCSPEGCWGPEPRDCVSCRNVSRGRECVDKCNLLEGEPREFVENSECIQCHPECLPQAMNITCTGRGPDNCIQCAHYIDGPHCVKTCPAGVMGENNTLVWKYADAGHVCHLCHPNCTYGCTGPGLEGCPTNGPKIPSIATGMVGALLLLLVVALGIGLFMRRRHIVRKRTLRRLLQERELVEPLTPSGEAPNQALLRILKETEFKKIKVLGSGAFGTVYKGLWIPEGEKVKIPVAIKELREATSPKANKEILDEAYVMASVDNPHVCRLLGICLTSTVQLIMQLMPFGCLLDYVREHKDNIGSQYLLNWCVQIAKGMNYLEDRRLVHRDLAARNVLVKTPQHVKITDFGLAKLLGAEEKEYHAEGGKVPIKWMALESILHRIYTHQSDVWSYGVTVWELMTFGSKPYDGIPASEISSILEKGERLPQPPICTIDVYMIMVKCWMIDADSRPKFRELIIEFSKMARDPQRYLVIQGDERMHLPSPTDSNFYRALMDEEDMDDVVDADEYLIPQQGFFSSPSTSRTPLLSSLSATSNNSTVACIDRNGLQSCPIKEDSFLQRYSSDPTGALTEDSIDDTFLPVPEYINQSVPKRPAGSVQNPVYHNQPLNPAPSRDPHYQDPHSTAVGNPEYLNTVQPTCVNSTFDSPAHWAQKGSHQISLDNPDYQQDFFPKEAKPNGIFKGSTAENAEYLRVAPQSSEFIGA
Focal adhesion kinase 1 (Homo sapiens), sequence (Q05397 2-1052 limits assumed): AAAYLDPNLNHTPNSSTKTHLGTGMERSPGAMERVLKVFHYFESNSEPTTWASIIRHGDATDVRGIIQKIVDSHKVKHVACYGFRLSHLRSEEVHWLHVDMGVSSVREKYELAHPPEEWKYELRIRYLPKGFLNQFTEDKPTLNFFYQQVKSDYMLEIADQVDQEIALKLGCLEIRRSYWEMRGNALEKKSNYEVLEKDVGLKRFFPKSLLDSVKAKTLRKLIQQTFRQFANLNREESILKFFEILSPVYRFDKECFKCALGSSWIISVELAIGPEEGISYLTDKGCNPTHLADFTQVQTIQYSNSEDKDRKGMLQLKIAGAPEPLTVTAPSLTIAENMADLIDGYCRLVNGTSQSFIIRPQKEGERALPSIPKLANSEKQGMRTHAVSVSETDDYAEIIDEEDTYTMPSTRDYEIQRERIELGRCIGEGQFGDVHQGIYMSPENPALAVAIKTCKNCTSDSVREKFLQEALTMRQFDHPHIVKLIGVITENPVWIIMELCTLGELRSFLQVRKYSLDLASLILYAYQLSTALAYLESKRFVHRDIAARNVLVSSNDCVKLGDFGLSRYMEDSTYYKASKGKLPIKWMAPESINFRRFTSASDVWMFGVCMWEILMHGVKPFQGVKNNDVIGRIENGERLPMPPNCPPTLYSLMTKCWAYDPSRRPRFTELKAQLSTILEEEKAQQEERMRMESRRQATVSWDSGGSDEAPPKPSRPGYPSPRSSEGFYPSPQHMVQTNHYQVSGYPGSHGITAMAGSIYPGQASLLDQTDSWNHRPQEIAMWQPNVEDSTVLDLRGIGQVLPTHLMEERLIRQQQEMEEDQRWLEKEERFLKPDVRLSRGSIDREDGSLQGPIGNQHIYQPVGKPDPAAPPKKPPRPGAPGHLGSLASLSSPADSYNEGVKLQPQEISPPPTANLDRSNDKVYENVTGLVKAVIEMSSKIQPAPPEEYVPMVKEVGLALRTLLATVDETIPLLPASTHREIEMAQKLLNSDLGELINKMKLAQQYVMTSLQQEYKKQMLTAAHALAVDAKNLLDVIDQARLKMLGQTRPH
Cyclin-dependent kinase 1/cyclin B1 (Homo sapiens), sequence (P06493 whole entry, looked up): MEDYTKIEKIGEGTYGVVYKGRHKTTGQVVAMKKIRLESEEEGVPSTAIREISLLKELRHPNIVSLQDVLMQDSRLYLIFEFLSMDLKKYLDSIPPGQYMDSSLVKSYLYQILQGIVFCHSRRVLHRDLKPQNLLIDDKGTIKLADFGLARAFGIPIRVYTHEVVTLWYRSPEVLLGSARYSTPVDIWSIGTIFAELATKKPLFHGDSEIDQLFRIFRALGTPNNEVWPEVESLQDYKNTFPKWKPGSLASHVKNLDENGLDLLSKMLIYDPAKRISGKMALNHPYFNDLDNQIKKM
Cyclin-dependent kinase 1/cyclin B1 (Homo sapiens), sequence (P14635 whole entry, looked up): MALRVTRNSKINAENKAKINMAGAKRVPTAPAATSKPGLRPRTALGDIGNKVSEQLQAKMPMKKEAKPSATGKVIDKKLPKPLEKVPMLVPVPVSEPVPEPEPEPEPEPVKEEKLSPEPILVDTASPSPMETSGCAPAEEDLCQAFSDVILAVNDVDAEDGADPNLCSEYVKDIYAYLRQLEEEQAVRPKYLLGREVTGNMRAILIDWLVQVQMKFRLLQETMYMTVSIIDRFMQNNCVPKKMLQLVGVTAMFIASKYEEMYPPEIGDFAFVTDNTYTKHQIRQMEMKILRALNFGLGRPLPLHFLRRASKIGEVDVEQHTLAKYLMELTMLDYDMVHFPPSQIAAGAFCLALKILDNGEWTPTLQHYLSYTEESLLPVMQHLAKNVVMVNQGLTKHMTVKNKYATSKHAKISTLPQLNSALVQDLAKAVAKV
Tyrosine-protein kinase Blk (Homo sapiens), sequence (P51451 2-505 limits assumed): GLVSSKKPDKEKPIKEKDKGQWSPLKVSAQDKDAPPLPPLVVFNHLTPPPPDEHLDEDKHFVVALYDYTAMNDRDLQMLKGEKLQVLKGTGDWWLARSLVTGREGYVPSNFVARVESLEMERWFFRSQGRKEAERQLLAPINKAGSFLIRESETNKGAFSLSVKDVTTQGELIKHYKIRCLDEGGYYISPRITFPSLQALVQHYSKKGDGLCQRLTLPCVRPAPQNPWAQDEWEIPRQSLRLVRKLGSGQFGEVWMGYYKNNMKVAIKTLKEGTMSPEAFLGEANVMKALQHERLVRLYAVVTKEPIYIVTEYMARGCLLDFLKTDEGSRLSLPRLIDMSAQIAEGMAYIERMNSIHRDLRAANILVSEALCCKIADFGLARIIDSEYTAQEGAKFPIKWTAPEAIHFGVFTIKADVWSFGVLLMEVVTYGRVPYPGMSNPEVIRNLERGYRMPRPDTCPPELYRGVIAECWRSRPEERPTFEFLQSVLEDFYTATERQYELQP
Dual specificity mitogen-activated protein kinase kinase 1 (Homo sapiens), sequence (Q02750 whole entry, the tested form may be a part): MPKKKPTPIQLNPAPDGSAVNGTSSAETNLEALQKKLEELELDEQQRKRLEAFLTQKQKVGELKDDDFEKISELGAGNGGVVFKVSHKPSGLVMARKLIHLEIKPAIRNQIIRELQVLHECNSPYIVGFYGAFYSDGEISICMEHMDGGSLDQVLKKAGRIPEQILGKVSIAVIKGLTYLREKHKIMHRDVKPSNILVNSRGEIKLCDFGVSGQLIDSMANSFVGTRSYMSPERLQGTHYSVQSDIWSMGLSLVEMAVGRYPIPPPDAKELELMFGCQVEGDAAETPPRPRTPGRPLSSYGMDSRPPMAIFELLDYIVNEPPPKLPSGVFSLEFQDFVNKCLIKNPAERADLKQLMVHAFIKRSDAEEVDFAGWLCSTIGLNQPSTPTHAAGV

| SMILES | IC50 (HT-29) | IC50 [1] | IC50 (NCI-H1975) | IC50 [2] | IC50 (A549) | also measured |
| --- | --- | --- | --- | --- | --- | --- |
| CC(=O)c1ccccc1-n1c(-c2ccccc2)nc2cc(Cl)ccc2c1=O | 50 µM | 0.72 µM | 0.846 µM | 34.3 µM | 50 µM |  |
| COc1ccc(-c2nnc(-n3c(-c4ccccc4)nc4cc(Cl)ccc4c3=O)s2)cc1 | 0.388 µM | 0.021 µM | 0.031 µM | 0.32 µM | 0.39 µM | inhibition [3]: 0%; inhibition [4]: 0%; inhibition [5]: 0%; inhibition [6]: 42%; inhibition [7]: 0%; inhibition [8]: 0%; inhibition [9]: 0%; inhibition [10]: 0%; inhibition [11]: 0%; inhibition at 3 µM [12]: 78%; inhibition [13]: 0%; inhibition [14]: 0%; inhibition [15]: 0%; inhibition [16]: 0%; inhibition [17]: 0 to 34%; inhibition [18]: 10%; inhibition [19]: 0%; inhibition [20]: 0%; inhibition [21]: 0% |
| O=C(Nc1cc(Cl)ccc1C(=O)NCc1ccccc1)c1ccccc1 | 4.8 µM |  | 1.67 µM |  | 1.57 µM |  |
| NCCn1c(-c2ccccc2)nc2cc(Cl)ccc2c1=O | 0.428 µM | 0.287 µM | 0.378 µM | 2.11 µM | 2.45 µM |  |
| O=C(Nc1cc(Cl)ccc1C(=O)Nc1ccc(F)cc1)c1ccccc1 | 3.36 µM |  | 14.4 µM |  | 17.4 µM |  |
| COc1ccc(-n2c(-c3ccccc3)nc3cc(Cl)ccc3c2=O)cc1 | 3.92 µM |  | 2.88 µM |  | 2.87 µM |  |
| O=c1c2ccc(Cl)cc2nc(-c2ccccc2)n1-c1cccnc1 | 3.8 µM |  | 2.45 µM |  | 3.33 µM |  |
| O=c1c2ccc(Cl)cc2nc(-c2ccccc2)n1-c1nnc(C2CC2)s1 | 0.732 µM | 0.102 µM | 0.129 µM | 0.53 µM | 0.717 µM |  |
| O=C(Nn1c(-c2ccccc2)nc2ccccc2c1=O)c1ccc(Br)cc1 | 1.15 µM | 0.78 µM | 0.81 µM | 0.42 µM | 0.523 µM |  |
| Nc1ccccc1-n1c(-c2ccccc2)nc2cc(Cl)ccc2c1=O | 50 µM |  | 4.87 µM |  | 18.3 µM |  |
| O=c1c2ccccc2nc(-c2ccccc2)n1-c1ccc(F)c(Cl)c1 | 6.12 µM |  | 4.89 µM |  | 5.42 µM |  |
| O=c1c2ccccc2nc(-c2ccccc2)n1-c1nnc(-c2ccccc2Cl)s1 | 32.5 µM | 7.23 µM | 5.23 µM | 78.2 µM | 100 µM |  |
| C=CC(=O)Nc1cccc(Oc2nc(Nc3ccc(N4CCN(C)CC4)cc3OC)ncc2Cl)c1 |  |  |  |  | 1.87 µM |  |
| Cc1nnc(-n2c(-c3ccccc3)nc3cc(Cl)ccc3c2=O)s1 | 21.2 µM |  | 0.76 µM |  | 3.79 µM |  |
| O=c1c2ccc(Cl)cc2nc(-c2ccccc2)n1-c1nnc(-c2ccccc2)s1 | 2.72 µM | 1.12 µM | 0.213 µM | 1.68 µM | 2.09 µM |  |
| O=c1c2ccccc2nc(-c2ccccc2)n1-c1nnc(C2CC2)s1 | 3.46 µM |  | 2.38 µM |  | 3.02 µM |  |
| O=c1c2ccc(Cl)cc2nc(-c2ccccc2)n1-c1cccc(Cl)c1 | 4.5 µM |  | 2.45 µM |  | 5.3 µM |  |
